{
  "source": "patent US20120252865A1",
  "about": "“CARBAMATE DERIVATIVES IN PARTICULAR FOR THE TREATMENT OF NEUROLOGICAL DISORDERS” (SIGMA-TAU INDUSTRIE FARMACEUTICHE RIUNITE S.P.A., priority 2009, published 2012)",
  "key": {"[1]": {"tested_on": "mechanical hyperalgesia", "experiment": "Paw withdrawal test for mechanical hyperalgesia (Randall-Selitto analgesimeter)", "format": "in vivo", "details": "rat, 50 mg/kg (FIG. 1)", "experimental": "The paw withdrawal test was used to assess mechanical hyperalgesia. The nociceptive threshold, expressed in grams, was measured by applying increasing pressure to the left and right hind paws using a Randall-Selitto analgesimeter (Ugo Basile, Varese, Italy). The parameter used to quantify the nociceptive threshold was defined as the pressure (grams) at which the rat withdrew its paw. Rats were habituated to the testing procedures and handling by the investigator in the week prior to the experiment.\nDose response experiments at 10, 30 and 100 mg/kg were also conducted with ST4068, ST3911 and ST3913."}, "[2]": {"tested_on": "pain", "details": "Kathuria S., et al, Nat. Med., 2003; cited from earlier work"}, "[3]": {"tested_on": "pain", "details": "Kathuria S., et al, Nat. Med., 2003; cited from earlier work", "remark": "listed apart in the source"}, "[4]": {"tested_on": "anxiety", "details": "Kathuria S., et al, Nat. Med., 2003; cited from earlier work"}},
  "data": [
    {"smiles": "NC(=O)c1cccc(-c2cccc(OC(=O)NC3CCCCC3)c2)c1", "note": "[URB597]", "values": [
      {"measurement": "analgesic activity (nociceptive threshold, paw withdrawal)", "setting": "[1]", "value": "did not show any activity"},
      {"measurement": "analgesic efficacy in the rat hot plate test", "setting": "[2]", "value": "analgesic efficacy"},
      {"measurement": "analgesic efficacy in the rat formalin test", "setting": "[3]", "value": "analgesic efficacy"},
      {"measurement": "efficacy in the zero plus maze animal model of anxiety", "setting": "[4]", "value": "efficacious"}
    ]}
  ]
}
